In patent US11834453B2, “Substituted pyrimido[5,4-d]pyrimidines as HER2 inhibitors” (Array BioPharma Inc., priority 2020, dated 2023) one finds IC50 and efflux ratio data, which are given here for 14 compounds.

Read-outs that look alike come from different tables or passages of the source.

What is called IC50 is the concentration needed to halve the response being measured. As usually defined, the efflux ratio is the permeability from basolateral to apical divided by that in the opposite direction, in the common usage.

In one data set the target is ErbB2 WT (Homo sapiens (Human), UniProt P04626). Briefly: ErbB enzyme assay (CisBio HTRF KinEASE-TK), Assay 2. The class given is biochemical. The method in brief:
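Readout is HTRF KinEASE-TK, using Sa-XL665 and cryptate antibody for 1 h at 22 °C, as percent of control between DMSO-only (100) and pre-quenched (0) reactions. The kinase reaction runs 30 min at 22 °C with 1 mM ATP and 250 nM biotinylated TK substrate, in HEPES pH 7.4 with MgCl2 and 2% DMSO.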
In general terms: In TR-FRET formats the signal depends on donor and acceptor labels being close together.

The target in the next data set is EGFR (Homo sapiens (Human), UniProt P00533). The experiment in a line: ErbB enzyme assay (CisBio HTRF KinEASE-TK), Assay 3. The format is biochemical. An outline of the steps:
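First, enzyme was reacted with compound, 1 mM ATP and 250 nM biotinylated tyrosine-kinase peptide for 30 min at 22 °C at pH 7.4. Next, streptavidin-XL665 and cryptate antibody were added for 1 h. Finally, HTRF ratios were converted to POC and fitted to yield IC50.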

The target in another data set is EGFR wild type (EGFR WT) (Homo sapiens (Human), UniProt P00533). The experiment in a line: Cellular phosphorylation assay, EGF-stimulated EGFR phosphorylation in engineered NIH 3T3 cells, Phospho-EGFR DuoSet IC ELISA, Assay 5. The format is cell-based. The method in brief:
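Phospho-EGFR ELISA on lysates of engineered NIH 3T3 EGFR WT cells, IC50 derived from concentration curves. Cells plated at 20,000/well overnight, given compound dilutions 1 h at 37 °C, then rEGF 100 ng/ml for a further 10 min before lysis.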

The target of data set [1] is ErbB2 with Exon 20 YVMA insertion (HER2-YVMA) (Homo sapiens (Human), UniProt P04626, INS775YVMA). The experiment in a line: Cellular phosphorylation assay, constitutive ErbB2 phosphorylation (Y1196) in engineered NIH 3T3 cells, Assay 4. The format is cell-based. The method in brief:
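In-cell Western in NIH 3T3 cells carrying ErbB2 exon 20 YVMA insertion, with no ligand stimulation. One hour compound exposure at 37 °C before fixation and anti-pY1196 plus GAPDH staining with dual-wavelength fluorescence. IC50 derived after GAPDH normalization.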

The target of data set [2] is ErbB2 insYVMA (HER2-YVMA, SEQ ID NO: 2) (Homo sapiens, UniProt P04626, INS775YVMA/P1170A). The experiment in a line: biochemical. The settings on record: ErbB2 insYVMA enzyme assay.
The next data set has as its target MDR1 (P-gp) (Homo sapiens (Human), UniProt P08183). The experiment in a line: MDR1 transfected LLC-PK1 permeability/efflux, Assay 6. The settings on record: pig.
A further data set concerns the target BCRP (Homo sapiens (Human), UniProt Q9UNQ0). Briefly: BCRP transfected MDCKII canine Mdr1 knockout permeability/efflux, Assay 9. The following applies: dog.
The mark [3] stands for this setting: LLC-PK1, Assay 6 Pe Ratio, efflux ratio Papp(B-A)/Papp(A-B), MDR1 transfected LLC-PK1.
The mark [4] stands for this setting: Assay 9 Pe Ratio, efflux ratio Papp(B-A)/Papp(A-B), BCRP transfected MDCKII canine Mdr1 knockout.

Chain of MDR1 (P-gp) (P08183 whole entry): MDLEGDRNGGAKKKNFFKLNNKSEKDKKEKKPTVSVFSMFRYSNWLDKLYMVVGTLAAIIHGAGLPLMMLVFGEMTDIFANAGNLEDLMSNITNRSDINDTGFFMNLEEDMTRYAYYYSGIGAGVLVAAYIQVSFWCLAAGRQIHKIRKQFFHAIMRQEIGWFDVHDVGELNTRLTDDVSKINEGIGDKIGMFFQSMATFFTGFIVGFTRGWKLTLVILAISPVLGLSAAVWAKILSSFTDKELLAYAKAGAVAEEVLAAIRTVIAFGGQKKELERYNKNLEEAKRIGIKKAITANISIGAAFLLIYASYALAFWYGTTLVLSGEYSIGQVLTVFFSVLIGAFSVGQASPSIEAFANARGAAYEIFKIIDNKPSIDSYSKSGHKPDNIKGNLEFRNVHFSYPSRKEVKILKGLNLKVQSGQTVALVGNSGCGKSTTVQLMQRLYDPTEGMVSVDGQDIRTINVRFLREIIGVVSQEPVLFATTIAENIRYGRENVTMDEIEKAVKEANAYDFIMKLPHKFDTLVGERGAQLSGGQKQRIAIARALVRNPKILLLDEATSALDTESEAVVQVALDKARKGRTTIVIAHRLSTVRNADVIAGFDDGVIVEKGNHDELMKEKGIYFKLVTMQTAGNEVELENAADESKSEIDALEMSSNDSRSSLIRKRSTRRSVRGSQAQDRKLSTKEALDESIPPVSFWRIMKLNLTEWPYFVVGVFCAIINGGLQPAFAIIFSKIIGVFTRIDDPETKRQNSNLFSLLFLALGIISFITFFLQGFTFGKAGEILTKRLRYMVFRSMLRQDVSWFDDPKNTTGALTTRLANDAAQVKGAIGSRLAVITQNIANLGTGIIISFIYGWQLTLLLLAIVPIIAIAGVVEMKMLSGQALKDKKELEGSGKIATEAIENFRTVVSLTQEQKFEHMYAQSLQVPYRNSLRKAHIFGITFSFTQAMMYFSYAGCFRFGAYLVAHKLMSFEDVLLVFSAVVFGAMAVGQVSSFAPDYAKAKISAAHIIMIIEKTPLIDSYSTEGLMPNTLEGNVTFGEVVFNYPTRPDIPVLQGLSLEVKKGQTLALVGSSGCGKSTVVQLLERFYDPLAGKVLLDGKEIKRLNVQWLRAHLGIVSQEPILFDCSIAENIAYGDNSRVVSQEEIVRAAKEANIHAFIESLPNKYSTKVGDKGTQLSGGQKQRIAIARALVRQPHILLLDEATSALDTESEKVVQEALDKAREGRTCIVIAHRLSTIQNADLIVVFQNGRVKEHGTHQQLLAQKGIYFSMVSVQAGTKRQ
Chain of BCRP (Q9UNQ0 whole entry): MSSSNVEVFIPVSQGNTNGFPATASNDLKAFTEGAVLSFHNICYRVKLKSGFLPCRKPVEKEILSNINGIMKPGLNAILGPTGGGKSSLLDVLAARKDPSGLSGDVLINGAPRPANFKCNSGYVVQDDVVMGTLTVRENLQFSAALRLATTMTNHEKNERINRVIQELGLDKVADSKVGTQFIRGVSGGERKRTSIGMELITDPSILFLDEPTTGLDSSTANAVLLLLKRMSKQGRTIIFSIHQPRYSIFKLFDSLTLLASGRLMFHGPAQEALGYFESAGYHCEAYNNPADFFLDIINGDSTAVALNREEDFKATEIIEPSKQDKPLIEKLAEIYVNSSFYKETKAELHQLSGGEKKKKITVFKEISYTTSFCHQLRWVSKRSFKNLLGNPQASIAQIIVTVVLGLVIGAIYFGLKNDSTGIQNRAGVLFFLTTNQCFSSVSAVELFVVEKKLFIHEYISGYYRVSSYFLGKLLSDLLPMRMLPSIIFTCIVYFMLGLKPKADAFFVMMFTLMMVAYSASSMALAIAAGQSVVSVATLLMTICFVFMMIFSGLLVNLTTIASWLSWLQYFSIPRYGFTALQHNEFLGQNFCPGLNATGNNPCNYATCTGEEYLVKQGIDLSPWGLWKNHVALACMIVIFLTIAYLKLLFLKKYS
Chain of ErbB2 WT (P04626 23-1255): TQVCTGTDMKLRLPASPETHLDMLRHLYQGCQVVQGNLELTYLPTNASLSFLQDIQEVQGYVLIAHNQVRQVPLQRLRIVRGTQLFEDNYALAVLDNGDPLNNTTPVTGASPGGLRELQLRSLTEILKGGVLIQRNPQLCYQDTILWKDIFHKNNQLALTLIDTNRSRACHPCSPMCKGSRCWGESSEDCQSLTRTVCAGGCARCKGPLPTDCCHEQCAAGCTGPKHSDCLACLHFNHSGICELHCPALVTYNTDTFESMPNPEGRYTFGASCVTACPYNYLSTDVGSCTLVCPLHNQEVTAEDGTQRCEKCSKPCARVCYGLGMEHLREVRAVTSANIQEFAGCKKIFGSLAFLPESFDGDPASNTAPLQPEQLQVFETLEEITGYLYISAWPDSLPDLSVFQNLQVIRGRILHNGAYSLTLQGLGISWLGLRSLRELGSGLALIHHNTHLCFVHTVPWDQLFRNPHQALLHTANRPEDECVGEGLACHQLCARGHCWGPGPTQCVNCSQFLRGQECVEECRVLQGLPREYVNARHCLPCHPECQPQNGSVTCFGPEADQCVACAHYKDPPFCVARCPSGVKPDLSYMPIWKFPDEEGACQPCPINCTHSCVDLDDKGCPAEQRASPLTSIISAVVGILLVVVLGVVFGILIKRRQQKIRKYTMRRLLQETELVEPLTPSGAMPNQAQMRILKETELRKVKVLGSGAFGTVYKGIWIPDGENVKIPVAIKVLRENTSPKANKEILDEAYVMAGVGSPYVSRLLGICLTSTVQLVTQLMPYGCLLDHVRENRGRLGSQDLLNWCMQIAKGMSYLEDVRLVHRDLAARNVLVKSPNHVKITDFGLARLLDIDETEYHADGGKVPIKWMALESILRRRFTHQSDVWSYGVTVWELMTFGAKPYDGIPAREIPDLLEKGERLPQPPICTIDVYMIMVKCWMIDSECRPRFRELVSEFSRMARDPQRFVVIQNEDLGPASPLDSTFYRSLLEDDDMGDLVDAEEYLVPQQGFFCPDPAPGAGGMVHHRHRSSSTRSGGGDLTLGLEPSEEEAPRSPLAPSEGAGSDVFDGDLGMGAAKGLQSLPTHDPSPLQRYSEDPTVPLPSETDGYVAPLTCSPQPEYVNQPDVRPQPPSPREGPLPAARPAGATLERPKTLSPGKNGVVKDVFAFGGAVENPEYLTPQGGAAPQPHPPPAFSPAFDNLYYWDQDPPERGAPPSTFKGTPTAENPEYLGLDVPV
Chain of ErbB2 with Exon 20 YVMA insertion (HER2-YVMA) (P04626 other isoform, or with tags, fused parts or gaps ins YVMA behind 775): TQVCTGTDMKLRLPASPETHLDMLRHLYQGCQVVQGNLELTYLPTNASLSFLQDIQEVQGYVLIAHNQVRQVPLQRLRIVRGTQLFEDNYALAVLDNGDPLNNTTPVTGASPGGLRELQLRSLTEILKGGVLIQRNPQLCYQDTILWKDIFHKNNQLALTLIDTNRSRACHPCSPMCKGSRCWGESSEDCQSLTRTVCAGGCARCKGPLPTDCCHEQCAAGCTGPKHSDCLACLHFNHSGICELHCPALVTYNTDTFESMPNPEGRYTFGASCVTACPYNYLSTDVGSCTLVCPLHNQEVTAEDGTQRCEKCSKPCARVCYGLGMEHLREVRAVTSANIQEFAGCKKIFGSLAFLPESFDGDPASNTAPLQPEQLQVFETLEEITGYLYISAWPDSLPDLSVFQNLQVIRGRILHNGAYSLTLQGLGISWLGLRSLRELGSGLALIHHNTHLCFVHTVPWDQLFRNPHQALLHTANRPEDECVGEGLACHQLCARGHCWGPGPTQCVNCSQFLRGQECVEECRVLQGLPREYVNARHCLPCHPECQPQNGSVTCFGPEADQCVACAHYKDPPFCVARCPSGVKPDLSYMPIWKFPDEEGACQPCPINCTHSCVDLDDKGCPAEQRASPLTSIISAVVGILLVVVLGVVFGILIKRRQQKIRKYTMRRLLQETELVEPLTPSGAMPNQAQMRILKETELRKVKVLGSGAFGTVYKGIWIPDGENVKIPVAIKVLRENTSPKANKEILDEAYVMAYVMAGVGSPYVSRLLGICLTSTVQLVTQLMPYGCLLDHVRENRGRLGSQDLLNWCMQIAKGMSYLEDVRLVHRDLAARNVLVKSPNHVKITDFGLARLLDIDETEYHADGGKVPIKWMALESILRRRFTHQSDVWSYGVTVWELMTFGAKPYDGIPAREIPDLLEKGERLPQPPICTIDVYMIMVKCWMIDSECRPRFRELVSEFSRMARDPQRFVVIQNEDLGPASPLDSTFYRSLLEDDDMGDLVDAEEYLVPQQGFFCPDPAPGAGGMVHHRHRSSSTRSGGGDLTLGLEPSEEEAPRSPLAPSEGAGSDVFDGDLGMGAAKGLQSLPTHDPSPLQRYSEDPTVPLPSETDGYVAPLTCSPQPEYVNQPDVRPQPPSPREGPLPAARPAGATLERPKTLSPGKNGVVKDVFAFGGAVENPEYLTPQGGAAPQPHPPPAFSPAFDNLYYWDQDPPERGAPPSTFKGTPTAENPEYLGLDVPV
Description for BCRP: BCRP transfected MDCKII cells (Assay 8) and BCRP transfected MDCKII canine Mdr1 knockout cells (Assay 9) were cultured and plated according to manufacturer's recommendations.
Both positive and negative controls were used to assess functionality of P-gp or BCRP efflux in the assays. Stock solutions for assay controls and the test article were prepared in DMSO for final test concentration of 1 μM. Final organic concentration in the assay was 1%. All dosing solutions contained 10 μM lucifer yellow to monitor MDCKII cell monolayer integrity.
For the apical to basolateral determination (A to B), 75 μL of the test article in transport buffer were added to the apical side of the individual transwells and 250 μL of basolateral media, without compound or lucifer yellow, were added to each well. For the basolateral to apical determination (B to A), 250 μL of test article in transport buffer were added to each well and 75 μL transport buffer, without compound or lucifer yellow, were added to each transwell. All tests were performed in triplicate, and each compound was tested for both apical to basolateral and basolateral to apical transport. The plates were incubated for 2 hours on a Lab-Line Instruments Titer Orbital Shaker (VWR, West Chester, PA) at 50 rpm and 37° C. with 5% CO2. All culture plates were removed from the incubator, 50 μL of media were removed from the apical and basolateral portion of each well, and added to 150 μL of 1 μM labetalol in 2:1 acetonitrile (ACN): H2O, v/v.
The plates were read using a Molecular Devices (Sunnyvale, CA) Gemini Fluorometer to evaluate the lucifer yellow concentrations at excitation/emission wavelengths of 425/535 nm. […] The plates were sealed, and the contents of each well analyzed by LC MS/MS. The compound concentrations were determined from the ratio of the peak areas of the compound to the internal standard (labetalol) in comparison to the dosing solution.
A MDS Sciex API 4000 (Applied Biosystems, Foster City, CA) mass spectrometer was used for detection of the analytes in the ion spray positive mode. Analyte responses were measured by multiple reaction monitoring (“MRM”) of transitions unique to each compound (the protonated precursor ion and selected product ions for each test article and m/z 329 to m/z 162 for labetalol, the internal standard.
The total run time, including re-equilibration, for a single injection was 1.2 minutes. […] The total run time, including re-equilibration, for a single injection was 0.61 minutes.
An efflux ratio is calculated from the mean apical to basolateral (A-B) Papp data and basolateral to apical (B-A) Papp data: Efflux ratio=Papp(B−A)/Papp(A−B)

Turning to `Cc1cc(Nc2ncnc3cnc(N4CCOCC4)nc23)ccc1Oc1cc(F)c2c(c1)ncn2C.O=C(O)C(F)(F)F` [Example 70, N-(4-((7-fluoro-1-methyl-1H-benzo[d]imidazol-5-yl)oxy)-3-methylphenyl)-6-morpholinopyrimido[5,4-d]pyrimidin-4-amine 2,2,2-trifluoroacetate], the IC50 on ErbB2 WT was 70.3 nM; against EGFR it was ≥ 10000 nM; at EGFR wild type (EGFR WT) it was ≥ 5000 nM; in data set [1], 4.9 nM; in data set [2] (Assay 1 IC50 (nM)) it was 106 nM. Moreover, the efflux ratio at 2 h, 1 μM on MDR1 (P-gp) (setting [3]) was found to be 1.8; on BCRP (setting [4]) it was 1.
With `Cc1cc(Nc2ncnc3cnc(N4CCO[C@@H](C)C4)nc23)ccc1Oc1ccc2c(c1)ncn2C.O=C(O)C(F)(F)F` [Example 74, (S)—N-(3-methyl-4-((1-methyl-1H-benzo[d]imidazol-5-yl)oxy)phenyl)-6-(2-methylmorpholino)pyrimido[5,4-d]pyrimidin-4-amine 2,2,2-trifluoroacetate], the IC50 on ErbB2 WT was 35.5 nM; against EGFR, 3720 nM; on EGFR wild type (EGFR WT), ≥ 5000 nM; in data set [1], 14.6 nM; in data set [2] (Assay 1 IC50 (nM)) it was 33 nM. Also, the efflux ratio at 2 h, 1 μM at MDR1 (P-gp) (LLC-PK1) came to 1.7; on BCRP it was 1.3.
`Cc1cc(Nc2ncnc3cnc(N4CC5CC4CO5)nc23)ccc1Oc1ccc2c(c1)ncn2C.O=C(O)C(F)(F)F` (centres unmarked) [Example 77, 6-(2-oxa-5-azabicyclo[2.2.1]heptan-5-yl)-N-(3-methyl-4-((1-methyl-1H-benzo[d]imidazol-5-yl)oxy)phenyl)pyrimido[5,4-d]pyrimidin-4-amine 2,2,2-trifluoroacetate]: the IC50 at ErbB2 WT was 48.9 nM; against EGFR, ≥ 10000 nM; on EGFR wild type (EGFR WT) it was ≥ 5000 nM; in data set [1], 17.2 nM; in data set [2] (Assay 1 IC50 (nM)) it was 26 nM. Further, the efflux ratio at 2 h, 1 μM at MDR1 (P-gp) (setting [3]) was found to be 1.7; at BCRP (setting [4]), 1.9.
For `Cc1cc(Nc2ncnc3cnc(N4CCOCC4)nc23)c(F)cc1Oc1ccc2c(c1)ncn2C.O=C(O)C(F)(F)F` [Example 78, N-(2-fluoro-5-methyl-4-((1-methyl-1H-benzo[d]imidazol-5-yl)oxy)phenyl)-6-morpholinopyrimido[5,4-d]pyrimidin-4-amine 2,2,2-trifluoroacetate], the IC50 against ErbB2 WT was 422 nM; at EGFR, ≥ 10000 nM; against EGFR wild type (EGFR WT) it was ≥ 5000 nM; in data set [1], 36.7 nM; in data set [2] (Assay 1 IC50 (nM)), 60.4 nM. Moreover, the efflux ratio at 2 h, 1 μM turned out to be 1.3 at MDR1 (P-gp) (setting [3]) and 1.1 at BCRP (setting [4]).
With `Cc1cc(Nc2ncnc3cnc(N4C(C)CCS4(=O)=O)nc23)ccc1Oc1ccc2c(c1)ncn2C.O=C(O)C(F)(F)F` (centres unmarked) [Example 79, 3-methyl-2-(8-((3-methyl-4-((1-methyl-1H-benzo[d]imidazol-5-yl)oxy)phenyl)amino)pyrimido[5,4-d]pyrimidin-2-yl)isothiazolidine 1,1-dioxide 2,2,2-trifluoroacetate], the IC50 is 33.8 nM at ErbB2 WT; 3490 nM at EGFR; ≥ 5000 nM against EGFR wild type (EGFR WT); 7.7 nM in data set [1]; 26.3 nM in data set [2] (Assay 1 IC50 (nM)). Besides, the efflux ratio at 2 h, 1 μM at MDR1 (P-gp) (setting [3]) came to 7.1; at BCRP (setting [4]) it was 9.8.
Regarding `Cn1cnc2cc(Oc3ccc(Nc4ncnc5cnc(N6CCOCC6)nc45)cc3F)ccc21.O=C(O)C(F)(F)F` [Example 80, N-(3-fluoro-4-((1-methyl-1H-benzo[d]imidazol-5-yl)oxy)phenyl)-6-morpholinopyrimido[5,4-d]pyrimidin-4-amine 2,2,2-trifluoroacetate], the IC50 at ErbB2 WT is 431 nM; against EGFR it was ≥ 10000 nM; at EGFR wild type (EGFR WT) it was ≥ 5000 nM; in data set [1], 47.1 nM; in data set [2] (Assay 1 IC50 (nM)), 35.6 nM. The efflux ratio at 2 h, 1 μM on MDR1 (P-gp) (setting [3]) came to 2.1; at BCRP (setting [4]), 2.4.
Consider `CNc1ncc2ncnc(Nc3ccc(Oc4cc(F)c5c(c4)ncn5C)c(C)c3)c2n1` [Example 88, N8-(4-((7-fluoro-1-methyl-1H-benzo[d]imidazol-5-yl)oxy)-3-methylphenyl)-N2-methylpyrimido[5,4-d]pyrimidine-2,8-diamine], for which the half-inhibitory concentration (IC50) at ErbB2 WT was 8.6 nM; on EGFR it was 9480 nM; against EGFR wild type (EGFR WT), ≥ 5000 nM; in data set [1], 5.1 nM; in data set [2] (read-out: Assay 1 IC50), 4.8 nM. Moreover, the efflux ratio at 2 h, 1 μM is 1.9 on MDR1 (P-gp) (setting [3]) and 1 at BCRP (setting [4]).
In the case of `Cc1cc(Nc2ncnc3cnc(N4CCO[C@H]5C[C@H]54)nc23)ccc1Oc1ccc2c(c1)ncn2C` [Example 161, 6-((1S,6R)-2-oxa-5-azabicyclo[4.1.0]heptan-5-yl)-N-(3-methyl-4-((1-methyl-1H-benzo[d]imidazol-5-yl)oxy)phenyl)pyrimido[5,4-d]pyrimidin-4-amine], the IC50 against ErbB2 WT was 28.9 nM; at EGFR, 8280 nM; on EGFR wild type (EGFR WT) it was ≥ 5000 nM; in data set [1], 16 nM; in data set [2] (read-out: Assay 1 IC50), 18.4 nM. Moreover, the efflux ratio at 2 h, 1 μM on MDR1 (P-gp) (setting [3]) is 1.8; at BCRP (setting [4]), 1.2.
`Cc1cc(Nc2ncnc3cnc(N(C)CC(C)(C)O)nc23)ccc1Oc1ccc2c(c1)ncn2C` [Example 163, 2-methyl-1-(methyl(8-((3-methyl-4-((1-methyl-1H-benzo[d]imidazol-5-yl)oxy)phenyl)amino)pyrimido[5,4-d]pyrimidin-2-yl)amino)propan-2-ol]: the IC50 against ErbB2 WT is 36.8 nM; at EGFR, 4480 nM; against EGFR wild type (EGFR WT), ≥ 5000 nM; in data set [1] it was 21.6 nM; in data set [2] (read-out: Assay 1 IC50), 28.2 nM. Besides, the results for the efflux ratio at 2 h, 1 μM on MDR1 (P-gp) (setting [3]) and on BCRP (setting [4]) were 1.8 and 2.7, respectively.
For the compound `Cc1cc(Nc2ncnc3cnc(N4C[C@H]5C[C@@H]4CO5)nc23)ccc1Oc1cc(F)c2c(c1)ncn2C` [Example 204, 6-((1R,4R)-2-oxa-5-azabicyclo[2.2.1]heptan-5-yl)-N-(4-((7-fluoro-1-methyl-1H-benzo[d]imidazol-5-yl)oxy)-3-methylphenyl)pyrimido[5,4-d]pyrimidin-4-amine], the IC50 is 108 nM on ErbB2 WT; 8060 nM on EGFR; ≥ 5000 nM against EGFR wild type (EGFR WT); 13.1 nM in data set [1]; 31.9 nM in data set [2] (read-out: Assay 1 IC50). Further, the efflux ratio at 2 h, 1 μM at MDR1 (P-gp) (setting [3]) came to 1.3; on BCRP (setting [4]) it was 1.2.
With `Cc1cc(Nc2ncnc3cnc(NCC(F)F)nc23)ccc1Oc1cc(F)c2c(c1)ncn2C` [Example 207, N2-(2,2-difluoroethyl)-N8-(4-((7-fluoro-1-methyl-1H-benzo[d]imidazol-5-yl)oxy)-3-methylphenyl)pyrimido[5,4-d]pyrimidine-2,8-diamine], the IC50 at ErbB2 WT was 45.1 nM; on EGFR, 1720 nM; on EGFR wild type (EGFR WT) it was ≥ 5000 nM; in data set [1] it was 16.9 nM; in data set [2] (read-out: Assay 1 IC50), 22.4 nM. The figures for the efflux ratio at 2 h, 1 μM at MDR1 (P-gp) (setting [3]) and on BCRP (setting [4]) were 1.6 and 1.7, respectively.
As for `Cc1cc(Nc2ncnc3cnc(N4CCC45COC5)nc23)ccc1Oc1cc(F)c2c(c1)ncn2C` [Example 216, N-(4-((7-fluoro-1-methyl-1H-benzo[d]imidazol-5-yl)oxy)-3-methylphenyl)-6-(6-oxa-1-azaspiro[3.3]heptan-1-yl)pyrimido[5,4-d]pyrimidin-4-amine], the IC50 at ErbB2 WT is 48.6 nM; against EGFR, 2360 nM; at EGFR wild type (EGFR WT), ≥ 5000 nM; in data set [1], 15.7 nM; in data set [2] (read-out: Assay 1 IC50), 33.2 nM. For the same compound, the efflux ratio at 2 h, 1 μM at MDR1 (P-gp) (LLC-PK1) amounted to 1.7; at BCRP, 0.9.
With `Cc1cc(Nc2ncnc3cnc(N4CCCC4)nc23)ccc1Oc1ccc2c(c1)ncn2C` [Example 222], the IC50 is 41.2 nM at ErbB2 WT; ≥ 10000 nM on EGFR; ≥ 5000 nM on EGFR wild type (EGFR WT); 38.9 nM in data set [1]; 34.4 nM in data set [2] (read-out: Assay 1 IC50). Moreover, the efflux ratio at 2 h, 1 μM was 1 on MDR1 (P-gp) (setting [3]) and 1.6 at BCRP (setting [4]).
In the case of `Cc1ncc(-c2ncc3ncnc(Nc4ccc(Oc5ccc6c(c5)ncn6C)c(C)c4)c3n2)o1` [Example 223], the IC50 against ErbB2 WT is 101 nM; against EGFR, ≥ 10000 nM; at EGFR wild type (EGFR WT) it was ≥ 5000 nM; in data set [1], 12.7 nM; in data set [2] (read-out: Assay 1 IC50), 91.6 nM. In addition, the efflux ratio at 2 h, 1 μM stood at 1.9 on MDR1 (P-gp) (setting [3]) and 3.7 on BCRP (setting [4]).
